Laboratory results taken from US10729135B2, “Methods of controlling pests using terpendoles” (priority 2017, dated 2020).
Where two headings read alike, the source gives them in different places.

What was measured:
Type in all cases: in vivo
[1] = tested on: two-spotted spider mite (Tetranychus urticae); test: whole plant or invertebrate; conditions: Kidney Bean, All stages; for mortality at 12.5 ppm / mortality at 50 ppm / mortality at 200 ppm / mortality at 500 ppm: Tetranychus urticae, read-out: Mortality score
Experimental: (§1) A bioefficacy assay utilizing terpendole C was conducted on the lepidopterans: diamondback moth (Plutella xylostella) and common cutworm (Spodoptera litura): the whitefly, tobacco whitefly (Bemisia tabaci) the thrips, western flower thrips (Frankliniella occidentalis); the planthopper, brown rice planthopper (Nilaparvata lugens); the aphids, cotton aphid (Aphis gossypii), foxglove aphid (Aulacorthum solani), cabbage aphid (Brevicoryne brassicae), birdcherry-oat aphid (Rhopalosiphum padi), green peach aphid (Myzus persicae); and the mite, two-spotted spider mite (Tetranychus urticae). Specifically, terpendole C was diluted with acetone and 5% Tween® 20 and finally diluted with water to prepare spray solutions. Terpendole C was then applied to plants as a foliar spray at 500, 200, 50, 12.5, 3.1, 1, 0.8 and/or 0.2 ppm and/or as a soil treatment at 2,500, 1,000, 250, 63, 16, 4 and/or 1 ppm. Pests were then placed on the plant or in the soil. Further, mortality and appetite suppression were recorded at 6, 7 and/or 13 days after treatment (“DAT”) and are reported in Tables 2 and 3, below, respectively.

[2] = tested on: tobacco whitefly (Bemisia tabaci); test: whole plant or invertebrate
Experimental: as §1

[3] = tested on: foxglove aphid (Aulacorthum solani); test: whole plant or invertebrate
Experimental: as §1

[4] = tested on: green peach aphid (Myzus persicae); test: whole plant or invertebrate
Experimental: as §1

[5] = tested on: diamondback moth (Plutella xylostella); test: whole plant or invertebrate
Experimental: as §1

[6] = tested on: cotton aphid (Aphis gossypii); test: whole plant or invertebrate
Experimental: as §1

[7] = tested on: cabbage aphid (Brevicoryne brassicae); test: whole plant or invertebrate
Experimental: as §1

[8] = tested on: western flower thrips (Frankliniella occidentalis); test: whole plant or invertebrate
Experimental: as §1

[9] = tested on: brown rice planthopper (Nilaparvata lugens); test: whole plant or invertebrate; conditions: 3rd-4th instar, 6 DAT
Experimental: as §1

[10] = tested on: birdcherry-oat aphid (Rhopalosiphum padi); test: whole plant or invertebrate
Experimental: as §1

[11] = tested on: common cutworm (Spodoptera litura); test: whole plant or invertebrate
Experimental: as §1

[12] = tested on: green peach aphids (Myzus persicae); test: LC50 biological efficacy assay on green peach aphids, aerosolized dilutions on infested radish leaves
Experimental: Biological efficacy assays utilizing terpendoles were conducted on green peach aphids (Myzus persicae). Specifically, terpendole A, terpendole C, terpendole J, terpendole K, terpendole N, terpendole O and terpendole P were each separately applied in serial dilutions to determine the concentration at which 50% control of green peach aphids occurred over a period of 24-48 hours (“LC50”). Radish leaves infested with green peach aphids were treated, top and bottom, with a total of 500 μl of an aerosolized terpendole dilution. Treated, aphid infested leaves were held in greenhouse conditions and evaluated for efficacy at 24 and 48 h.

[13] = either by killing the larvae or suppressing the appetite of the larvae

CC(C)=C[C@H]1O[C@H]2[C@H]3O[C@@]34[C@H](CC[C@@]3(C)[C@@]4(O)CC[C@H]4Cc5c([nH]c6ccccc56)[C@@]43C)O[C@@H]2C(C)(C)O1 [Terpendole C, terpendole C]
20 ppm: LC50 ([12]; concentration for 50% control over 24-48 hours, infested radish leaves, 500 μl aerosolized dilution)
3-4: Mortality score ([6]; 12.5 ppm, Cucumber, All stages, 6 DAT) | Appetite suppression score ([8]; 12.5 ppm, Kidney Bean, 1st-2nd instar, 6 DAT) | Appetite suppression score ([8]; 50 ppm, Kidney Bean, 1st-2nd instar, 6 DAT) | Appetite suppression score ([8]; 200 ppm, Kidney Bean, 1st-2nd instar, 6 DAT) | Appetite suppression score ([8]; 500 ppm, Kidney Bean, 1st-2nd instar, 6 DAT)
50%: mortality at 1 ppm ([2]; Bemisia tabaci, 168 h, 1 ppm, Cabbage, 1st instar, 7 DAT, read-out: Mortality score (converted)) | mortality at 3.1 ppm ([2]; Bemisia tabaci, 168 h, 3.1 ppm, Cabbage, 1st instar, 7 DAT, read-out: Mortality score (converted)) | mortality at 200 ppm ([3]; Aulacorthum solani, 144 h, 200 ppm, Kidney Bean, Adult, 6 DAT, read-out: Mortality score (converted)) | mortality at 3.1 ppm ([4]; Myzus persicae, 144 h, 3.1 ppm, Cabbage, All stages, 6 DAT, read-out: Mortality score (converted)) | mortality at 12.5 ppm ([5]; Plutella xylostella, 144 h, 12.5 ppm, Cabbage, 3rd instar, 6 DAT, read-out: Mortality score (converted)) | mortality at 50 ppm ([5]; Plutella xylostella, 144 h, 50 ppm, Cabbage, 3rd instar, 6 DAT, read-out: Mortality score (converted)) | mortality at 12.5 ppm ([10]; Rhopalosiphum padi, 144 h, 12.5 ppm, Wheat, All stages, 6 DAT, read-out: Mortality score (converted))
2 (2 = about 25% suppression): Appetite suppression score ([3]; 500 ppm, Kidney Bean, Adult, 6 DAT)
100%: mortality at 200 ppm ([4]; Myzus persicae, 144 h, 200 ppm, Cabbage, All stages, 6 DAT, read-out: Mortality score (converted)) | mortality at 500 ppm ([5]; Plutella xylostella, 144 h, 500 ppm, Cabbage, 3rd instar, 6 DAT, read-out: Mortality score (converted)) | mortality at 200 ppm ([6]; Aphis gossypii, 144 h, 200 ppm, Cucumber, All stages, 6 DAT, read-out: Mortality score (converted)) | mortality at 500 ppm ([6]; Aphis gossypii, 144 h, 500 ppm, Cucumber, All stages, 6 DAT, read-out: Mortality score (converted)) | mortality at 12.5 ppm ([7]; Brevicoryne brassicae, 144 h, 12.5 ppm, Cabbage, All stages, 6 DAT, read-out: Mortality score (converted)) | mortality at 50 ppm ([7]; Brevicoryne brassicae, 144 h, 50 ppm, Cabbage, All stages, 6 DAT, read-out: Mortality score (converted)) | mortality at 200 ppm ([7]; Brevicoryne brassicae, 144 h, 200 ppm, Cabbage, All stages, 6 DAT, read-out: Mortality score (converted))
4 (4 = 70-100% suppression): Appetite suppression score ([5]; 500 ppm, Cabbage, 3rd instar, 6 DAT) | Appetite suppression score ([11]; 12.5 ppm, Cabbage, 4th instar, 6 DAT) | Appetite suppression score ([11]; 50 ppm, Cabbage, 4th instar, 6 DAT) | Appetite suppression score ([11]; 200 ppm, Cabbage, 4th instar, 6 DAT) | Appetite suppression score ([11]; 500 ppm, Cabbage, 4th instar, 6 DAT)
0-2: Mortality score ([2]; 12.5 ppm, Cabbage, 1st instar, 7 DAT)
90%: mortality at 50 ppm ([4]; Myzus persicae, 144 h, 50 ppm, Cabbage, All stages, 6 DAT, read-out: Mortality score (converted)) | mortality at 200 ppm ([5]; Plutella xylostella, 144 h, 200 ppm, Cabbage, 3rd instar, 6 DAT, read-out: Mortality score (converted)) | mortality at 3.1 ppm ([6]; Aphis gossypii, 144 h, 3.1 ppm, Cucumber, All stages, 6 DAT, read-out: Mortality score (converted)) | mortality at 50 ppm ([6]; Aphis gossypii, 144 h, 50 ppm, Cucumber, All stages, 6 DAT, read-out: Mortality score (converted)) | mortality at 200 ppm ([10]; Rhopalosiphum padi, 144 h, 200 ppm, Wheat, All stages, 6 DAT, read-out: Mortality score (converted))
< 29%: mortality at 12.5 ppm ([1]; 168 h, 12.5 ppm, 7 DAT) | mortality at 50 ppm ([1]; 168 h, 50 ppm, 7 DAT) | mortality at 200 ppm ([1]; 168 h, 200 ppm, 7 DAT) | mortality at 500 ppm ([1]; 168 h, 500 ppm, 7 DAT) | mortality at 12.5 ppm ([1]; 312 h, 12.5 ppm, 13 DAT) | mortality at 50 ppm ([1]; 312 h, 50 ppm, 13 DAT) | mortality at 200 ppm ([1]; 312 h, 200 ppm, 13 DAT) | mortality at 500 ppm ([1]; 312 h, 500 ppm, 13 DAT) | mortality at 0.8 ppm ([2]; Bemisia tabaci, 168 h, 0.8 ppm, Cabbage, 1st instar, 7 DAT, read-out: Mortality score) | mortality at 50 ppm ([2]; Bemisia tabaci, 168 h, 50 ppm, Cabbage, 1st instar, 7 DAT, read-out: Mortality score) | mortality at 200 ppm ([2]; Bemisia tabaci, 168 h, 200 ppm, Cabbage, 1st instar, 7 DAT, read-out: Mortality score) | mortality at 500 ppm ([2]; Bemisia tabaci, 168 h, 500 ppm, Cabbage, 1st instar, 7 DAT, read-out: Mortality score) | mortality at 12.5 ppm ([3]; Aulacorthum solani, 144 h, 12.5 ppm, Kidney Bean, Adult, 6 DAT, read-out: Mortality score) | mortality at 50 ppm ([3]; Aulacorthum solani, 144 h, 50 ppm, Kidney Bean, Adult, 6 DAT, read-out: Mortality score) | mortality at 0.8 ppm ([4]; Myzus persicae, 144 h, 0.8 ppm, Cabbage, All stages, 6 DAT, read-out: Mortality score) | mortality at 0.2 ppm ([6]; Aphis gossypii, 144 h, 0.2 ppm, Cucumber, All stages, 6 DAT, read-out: Mortality score) | mortality at 0.2 ppm ([8]; Frankliniella occidentalis, 144 h, 0.2 ppm, Kidney Bean, 1st-2nd instar, 6 DAT, read-out: Mortality score) | mortality at 0.8 ppm ([8]; Frankliniella occidentalis, 144 h, 0.8 ppm, Kidney Bean, 1st-2nd instar, 6 DAT, read-out: Mortality score) | mortality at 3.1 ppm ([8]; Frankliniella occidentalis, 144 h, 3.1 ppm, Kidney Bean, 1st-2nd instar, 6 DAT, read-out: Mortality score) | mortality at 12.5 ppm ([8]; Frankliniella occidentalis, 144 h, 12.5 ppm, Kidney Bean, 1st-2nd instar, 6 DAT, read-out: Mortality score) | mortality at 50 ppm ([8]; Frankliniella occidentalis, 144 h, 50 ppm, Kidney Bean, 1st-2nd instar, 6 DAT, read-out: Mortality score) | mortality at 200 ppm ([8]; Frankliniella occidentalis, 144 h, 200 ppm, Kidney Bean, 1st-2nd instar, 6 DAT, read-out: Mortality score) | mortality at 500 ppm ([8]; Frankliniella occidentalis, 144 h, 500 ppm, Kidney Bean, 1st-2nd instar, 6 DAT, read-out: Mortality score) | mortality at 0.2 ppm ([9]; Nilaparvata lugens, 144 h, 0.2 ppm, read-out: Mortality score) | mortality at 0.8 ppm ([9]; Nilaparvata lugens, 144 h, 0.8 ppm, read-out: Mortality score) | mortality at 3.1 ppm ([9]; Nilaparvata lugens, 144 h, 3.1 ppm, read-out: Mortality score) | mortality at 50 ppm ([9]; Nilaparvata lugens, 144 h, 50 ppm, read-out: Mortality score) | mortality at 200 ppm ([9]; Nilaparvata lugens, 144 h, 200 ppm, read-out: Mortality score) | mortality at 500 ppm ([9]; Nilaparvata lugens, 144 h, 500 ppm, read-out: Mortality score) | mortality at 0.8 ppm ([10]; Rhopalosiphum padi, 144 h, 0.8 ppm, Wheat, All stages, 6 DAT, read-out: Mortality score) | mortality at 3.1 ppm ([10]; Rhopalosiphum padi, 144 h, 3.1 ppm, Wheat, All stages, 6 DAT, read-out: Mortality score) | mortality at 12.5 ppm ([11]; Spodoptera litura, 144 h, 12.5 ppm, Cabbage, 4th instar, 6 DAT, read-out: Mortality score) | mortality at 50 ppm ([11]; Spodoptera litura, 144 h, 50 ppm, Cabbage, 4th instar, 6 DAT, read-out: Mortality score) | mortality at 200 ppm ([11]; Spodoptera litura, 144 h, 200 ppm, Cabbage, 4th instar, 6 DAT, read-out: Mortality score) | mortality at 500 ppm ([11]; Spodoptera litura, 144 h, 500 ppm, Cabbage, 4th instar, 6 DAT, read-out: Mortality score)
0: Appetite suppression score ([1]; 12.5 ppm, 7 DAT) | Appetite suppression score ([1]; 12.5 ppm, 13 DAT) | Appetite suppression score ([1]; 50 ppm, 7 DAT) | Appetite suppression score ([1]; 50 ppm, 13 DAT) | Appetite suppression score ([1]; 200 ppm, 7 DAT) | Appetite suppression score ([1]; 200 ppm, 13 DAT) | Appetite suppression score ([1]; 500 ppm, 7 DAT) | Appetite suppression score ([1]; 500 ppm, 13 DAT) | Appetite suppression score ([3]; 12.5 ppm, Kidney Bean, Adult, 6 DAT) | Appetite suppression score ([3]; 50 ppm, Kidney Bean, Adult, 6 DAT) | Appetite suppression score ([3]; 200 ppm, Kidney Bean, Adult, 6 DAT) | Appetite suppression score ([5]; 12.5 ppm, Cabbage, 3rd instar, 6 DAT) | Appetite suppression score ([5]; 50 ppm, Cabbage, 3rd instar, 6 DAT)
effectively controlled: control of foxglove aphids (in words) ([3]; summary of Table 2) | control of green peach aphids (in words) ([4]; summary of Table 2) | control of diamondback moth (in words) [5, 13] | control of cotton aphids (in words) ([6]; summary of Table 2) | control of cabbage aphids (in words) ([7]; summary of Table 2) | control of birdcherry-oat aphids (in words) ([10]; summary of Table 2) | control of common cutworm (in words) [11, 13] | control of green peach aphids (in words) ([12]; summary of Table 1)
0-1: Mortality score ([9]; 12.5 ppm)
significantly controlled: control of the whitefly (in words) ([2]; summary of results) | control of the thrips (in words) ([8]; summary of results)
3 (3 = about 60% suppression): Appetite suppression score ([5]; 200 ppm, Cabbage, 3rd instar, 6 DAT)
75%: mortality at 500 ppm ([3]; Aulacorthum solani, 144 h, 500 ppm, Kidney Bean, Adult, 6 DAT, read-out: Mortality score (converted)) | mortality at 12.5 ppm ([4]; Myzus persicae, 144 h, 12.5 ppm, Cabbage, All stages, 6 DAT, read-out: Mortality score (converted)) | mortality at 0.8 ppm ([6]; Aphis gossypii, 144 h, 0.8 ppm, Cucumber, All stages, 6 DAT, read-out: Mortality score (converted)) | mortality at 0.8 ppm ([7]; Brevicoryne brassicae, 144 h, 0.8 ppm, Cabbage, All stages, 6 DAT, read-out: Mortality score (converted)) | mortality at 3.1 ppm ([7]; Brevicoryne brassicae, 144 h, 3.1 ppm, Cabbage, All stages, 6 DAT, read-out: Mortality score (converted)) | mortality at 50 ppm ([10]; Rhopalosiphum padi, 144 h, 50 ppm, Wheat, All stages, 6 DAT, read-out: Mortality score (converted))
